This is an account of results in patent publication US12478081B2, “Application of aspartic acid derivative in preparing animal feed additive” (ANIPHA TECHNOLOGIES PTY LTD, priority 2018, dated 2025).

A short description of the data set: Thermal stability of compounds at 60° C. (HPLC content of raw material and 2% premix). The conditions noted are these: for Detection result of the content of test sample (%) Day 5: Day 5, relative to Day 0; for Detection result of the content of test sample (%) Day 10: Day 10, relative to Day 0. Format: physicochemical. As to the method:
The variations of the contents of the main ingredient of the aspartic acid derivative raw material and the main ingredient of a premix containing 2% mass fraction of the aspartic acid derivative (hereinafter referred to as 2% premix) over time were investigated under the conditions of stability test at 60° C.
Experimental apparatus: drug stability incubator, Waters high-performance liquid chromatograph (HPLC), etc.
Test samples: N-carbamoyl-DL-aspartic acid (compound 1), diethyl N-carbamoyl-DL-aspartate (compound 2), Sodium N-carbamoyl-DL-aspartate (compound 3), Calcium N-carbamoyl-DL-aspartate (compound 4), Zinc N-carbamoyl-DL-aspartate (compound 5), Copper N-carbamoyl-DL-aspartate (compound 6), Iron N-carbamoyl-DL-aspartate (compound 7), N-glycyl-DL-aspartic acid (compound 8), N-(4-aminobutyryl)-DL-aspartic acid (compound 9), N-(10-aminodecanoyl)-DL-aspartic acid (compound 10), N-(14-aminomyristoyl)-DL-aspartic acid (compound 11).
Preparation of standard solution: 50 mg of the test sample raw material was ultrasonically dissolved in 50 mL of water to obtain a working reserve solution. An appropriate amount of the working reserve solution was taken and diluted with water respectively to concentrations of 125 ppm, 250 ppm, 500 ppm, and 1000 ppm for HPLC testing. It was checked whether the sample concentrations are in a linear relationship with the peak area response values in HPLC, and a standard curve was established.
Preparation of test solution: An appropriate amount of the test sample raw material and an appropriate amount of a premix containing 2% mass fraction of the test sample (hereinafter referred to as 2% premix) were separately ultrasonically dissolved in an appropriate amount of water to form a 1000 ppm solution, which is filtered through a 0.22 µm filter membrane and then analyzed by HPLC.
HPLC analysis conditions: chromatographic column: Waters C18 column (250 mm×4.6 mm, 5 μm); mobile phase: 0.05% phosphoric acid:methanol=95:5 (v:v) (raw material); 0.05% phosphoric acid: methanol (gradient elution); methanol: 5%→40% (0-15 min) curve 6, 40%→5% (15-16 min) curve 1, 5% (16-23 min) curve 1, (premix, feed); detection wavelength: 210 nm; column temperature: 25° C.; sample size: 20 μL; flow rate: 1 mL/min.
Test method: The test sample raw material and its 2% premix were placed in a culture plate, spread into a thin layer of <5 mm, and placed at 60° C. Samples were taken on the day 5 and ? day 10 for HPLC detection. Each sample was sampled three times in parallel.

Each structure is given as a SMILES string.

As to `NC(=O)NC(CC(=O)O)C(=O)O` (racemic) [Compound 1, N-carbamoyl-DL-aspartic acid], under “2% premix”, the “Detection result of the content of test sample (%) Day 5” value (“Detection result … (%) Day 5” for short) was found to be 99.66% and the “Detection result of the content of test sample (%) Day 10” value (“Detection result … (%) Day 10” below) amounted to 99.70%. Besides, where the note is “Raw material”, the “Detection result … (%) Day 5” value stood at 99.79% and the “Detection result … (%) Day 10” value stood at 99.28%.
In the case of `CCOC(=O)CC(NC(N)=O)C(=O)OCC` (racemic) [Compound 2, diethyl N-carbamoyl-DL-aspartate], for the setting “2% premix”, the “Detection result … (%) Day 5” value turned out to be 98.81% and the “Detection result … (%) Day 10” value is 98.09%. Under “Raw material”, the “Detection result … (%) Day 5” value is recorded as 97.32% and the “Detection result … (%) Day 10” value came out at 96.97%.
On the same counts, the results for `NCC(=O)NC(CC(=O)O)C(=O)O` (racemic) [Compound 8, N-glycyl-DL-aspartic acid] are 98.57%, 97.32%, 99.78% and 98.02%.
Regarding `NCCCC(=O)NC(CC(=O)O)C(=O)O` (racemic) [Compound 9, N-(4-aminobutyryl)-DL-aspartic acid], for the setting “2% premix”, the “Detection result … (%) Day 5” value is on record as 99.41% and the “Detection result … (%) Day 10” value was determined as 97.68%. For the setting “Raw material”, the “Detection result … (%) Day 5” value came out at 98.46% and the “Detection result … (%) Day 10” value is reported as 98.09%.
Consider `NCCCCCCCCCC(=O)NC(CC(=O)O)C(=O)O` (racemic) [Compound 10, N-(10-aminodecanoyl)-DL-aspartic acid], for which, where the note is “2% premix”, the “Detection result … (%) Day 5” value was 98.55% and the “Detection result … (%) Day 10” value is reported as 97.81%. Besides, for the setting “Raw material”, the “Detection result … (%) Day 5” value stood at 99.00% and the “Detection result … (%) Day 10” value turned out to be 96.73%.
On the same counts, the results for `NCCCCCCCCCCCCCC(=O)NC(CC(=O)O)C(=O)O` (racemic) [Compound 11, N-(14-aminomyristoyl)-DL-aspartic acid] are 98.22%, 97.80%, 97.61% and 95.93%.
